Test results taken from patent publication US20180078615A1, “USE OF CCL2 TO INHIBIT ABNORMAL UTERINE BLEEDING” (UNIVERSITY OF SOUTH FLORIDA, priority 2015, published 2018).

Experiments:
VSMCs [1] = assay: Transwell insert migration assay; format: cell-based, human; details: 12-h incubation, 10^−7 M; control 48.4%
Experimental: VSMCs (75,000 cells/200 μL) were suspended in M231 containing 1% charcoal striped FBS and either 0.1% ethanol (vehicle control) or the corresponding steroids and seeded onto insert wells (transwell filter with 12-μm pores; EMD Millipore). The inserts were then placed in 24-well plates containing 500 μL M231 with 1% charcoal striped FBS. After 12 h, cells remaining on the upper surface of the filter were removed with a cotton swab. Migrated cells were trypsinized, centrifuged, and resuspended in 200 μL of M231 medium. The cell suspensions were mixed with 200 μL 10% ethanol containing 0.4% Trypan blue dye and the live cell number was counted by Countess Automated Cell Counter (Invitrogen). See further details in SI Materials and Methods.
Cultured VSMCs were grown in T-75 cell culture flasks in M231 (Life Technologies) with smooth muscle growth supplement (Life Technologies) with 100 U/mL penicillin, 100 μg/mL streptomycin, 0.25 μg/mL fungizone. Confluent VSMCs were washed twice with 1×PBS to remove residual serum, and then trypsinized, resuspended (75,000 cells per 200 μL per well) in M231 with 1% charcoal striped FBS with 0.1% ethanol (vehicle, control), 10^−7 M MPA (Sigma-Aldrich), 10^−7 M ETO (Organon), or 10^−7 M P4 (Sigma-Aldrich)±rCCL2 (R&D Systems) and seeded on insert wells (transwell filter with 12-μm pores; EMD Millipore), which were then placed in 24-well plates containing 500 μL M231 with 1% charcoal striped FBS. After 12 h, cells remaining on the upper surface of the filter were removed with a cotton swab. Migrated cells attached to the lower surface of each insert or to the surface of lower wells were collected by trypsinization, followed by centrifugation and resuspension in 200 μL of M231 medium. The cell suspensions were mixed with 200 μL 10% ethanol containing 0.4% Trypan blue dye (selectively stains only dead cells blue, whereas live cells with intact cell membranes remain unstained) for 5 min. A mixture of 100 μL M231 and 100 μL 10% ethanol containing 0.4% Trypan blue dye was used as a negative control. To detect live cell numbers, 10 μL of final cell/Trypan blue dye suspension from each treatment condition was pipetted into Countess Cell Counting Chamber Slide and counted by using Countess Automated Cell Counter (Invitrogen). The counting procedure was performed in duplicate.

VSMCs [2] = assay: Whole genome microarray analysis (Illumina HumanHT-12 v4) of cultured VSMCs treated with progestins; format: cell-based, human; details: VSMCs treated by P4
Source text: Cultured VSMCs (n=3) treated with control medium or medium containing medroxyprogesterone acetate (MPA, 10^−7 M), or etonogestrel (ETO, 10^−7 M) were processed for whole genome analyses using Illumina Human microarray kit. After qRT-PCR confirmation of several up and down regulated genes from microarray data, Ingenuity Pathway Analysis (IPA) determined relevant upstream signaling of LAPC altered gene expression. To investigate the role of genes and relevant signaling molecules identified by IPA, VSMCs (n=3) treated with MPA or ETO±1 or 10 ng/ml recombinant CCL2 (rCCL2)±STAT1 inhibitor, 5′-methyl-thioadenosine (MTA, 100 μM) were analyzed by BrdU incorporation proliferation, TUNEL based ELISA apoptosis and Transwell insert migration assays.
VSMCs were thawed and cultured in medium 231 (M231; Life Technologies) with smooth muscle growth supplement (5% FBS; 2 ng/mL human basic fibroblast growth factor, 0.5 ng/mL human epidermal growth factor, 5 ng/mL heparin, 0.2 μg/mL insulin and 5 μg/mL BSA; Life Technologies) with 100 U/mL penicillin, 100 μg/mL streptomycin, 0.25 μg/mL fungizone. Confluent VSMCs were washed twice with 1×PBS to remove residual serum, passaged in 96-well or 6-well plates and incubated in parallel in M231 with 1% charcoal striped FBS with 0.1% ethanol (vehicle, control) or 10^−7 M MPA (Sigma-Aldrich) or 10^−7 M ETO (Organon) or 10^−7 M P4 (Sigma-Aldrich) for 15 min, 6, 48, and 72 h. VSMCs were then washed with ice-cold PBS and stored at −80° C. for further RNA and protein analyses.
Total RNA was isolated using Qiagen miRNeasy Mini Kit (Qiagen) and RNeasy MinElute Cleanup Kit (Qiagen). The quality of isolated RNAs was confirmed using an Agilent 2100 Bioanalyzer. Microarray analysis was limited to those specimens in which RNA Integrity Number exceeded 8. Microarray processes were performed in the Keck Biotechnology Resource Laboratory at Yale University (New Haven, Conn.) using Illumina Human HT-12 v4 BeadChip (Illumina). Raw data without normalization were analyzed by GeneSpring GX12.5 software (Agilent Technologies-Silicon Genetics). Normalization was performed as described (35). Genes with a fold-change >1.25 and a P value<0.05 were considered differentially expressed. Ingenuity Pathway Analysis (IPA) software (Qiagen) explored molecular and biological networks related to differentially expressed genes.

CC(=O)[C@H]1CC[C@H]2[C@@H]3CCC4=CC(=O)CC[C@]4(C)[C@H]3CC[C@]12C [P4, progesterone]
migration rate (VSMCs [1]): 39.4% | Fold-change, Chemokine (C-C motif) ligand 2 (CCL2) (VSMCs [2]): −1.289 | Fold-change, Chromosome 9 ORF 167 (C9orf167) (VSMCs [2]): −1.283 | Fold-change, Complement factor B (CFB) (VSMCs [2]): −1.309 | Fold-change, Complement factor H, transcript variant 2 (CFH) (VSMCs [2]): 1.271 | Fold-change, Cyclin C, transcript variant 2 (CCNC) (VSMCs [2]): 1.343 | Fold-change, Eukaryotic translation initiation factor 4 gamma, 2, transcript variant 1 (EIF4G2) (VSMCs [2]): 1.3 | Fold-change, Fukutin, transcript variant 2 (FKiTN) (VSMCs [2]): −1.299 | Fold-change, G protein-coupled receptor 1 (GPR1) (VSMCs [2]): −1.283 | Fold-change, Homo sapiens thioredoxin domain containing 5, transcript variant 2 (TXNDC5) (VSMCs [2]): 1.361 | Fold-change, Hypothetical LOC100190938 (LOC100190938), transcript variant 2, noncoding RNA (VSMCs [2]): −1.358 | Fold-change, Hypothetical gene supported by AK125735 (LOC441087) (VSMCs [2]): −1.467 | Fold-change, Hypothetical protein FLJ40504 (FLJ40504) (VSMCs [2]): −1.27 | Fold-change, Hypoxia-inducible factor 1, a subunit, transcript variant 1 (HIF1A) (VSMCs [2]): 1.328 | Fold-change, Integrin beta 1, transcript variant 1C-2 (ITGB1) (VSMCs [2]): 1.293 | Fold-change, Interleukin 33 (IL33) (VSMCs [2]): 1.275 | Fold-change, Janus kinase 1 (JAK1) (VSMCs [2]): 1.292 | Fold-change, Keratin 34 (KRT34) (VSMCs [2]): 1.268 | Fold-change, Microtubule-associated protein 1A (MAP1A) (VSMCs [2]): −1.269 | Fold-change, Minichromosome maintenance complex component 8, transcript variant 1 (MCM8) (VSMCs [2]): −1.32 | Fold-change, Mitogen-activated protein kinase kinase 2 (MAP2K2) (VSMCs [2]): −1.346 | Fold-change, N-deacetylase/N-sulfotransferase (heparan glucosaminyl) 1 (NDST1) (VSMCs [2]): −1.306 | Fold-change, OCIA domain containing 1, transcript variant 5 (OCIAD1) (VSMCs [2]): −1.275 | Fold-change, PREDICTED: misc_RNA (LOC100131609) (VSMCs [2]): 1.266 | Fold-change, Paralemmin, transcript variant 1 (PALM) (VSMCs [2]): −1.26 | Fold-change, Polyribonucleotide nucleotidyltransferase 1 (PNPT1) (VSMCs [2]): −1.286 | Fold-change, Retinoic acid receptor responder (tazarotene induced) 1, transcript variant 1, (RARRES1) (VSMCs [2]): −1.271 | Fold-change, Retinoic acid receptor responder (tazarotene induced) 1, transcript variant 2, (RARRES1) (VSMCs [2]): −1.289 | Fold-change, Ring finger protein 11 (RNF11) (VSMCs [2]): 1.256 | Fold-change, Serum amyloid A1, transcript variant 1 (SAA1) (VSMCs [2]): −1.324 | Fold-change, Serum amyloid A1 transcript variant 2 (SAA1) (VSMCs [2]): −1.566 | Fold-change, Solute carrier family 44, member 1 (SLC44A1) (VSMCs [2]): 1.26 | Fold-change, Staphylococcal nuclease and tudor domain containing 1 (SN D1) (VSMCs [2]): −1.25 | Fold-change, Sterol-C4-methyl oxidase-like, transcript variant 1 (SC4MOL) (VSMCs [2]): 1.296 | Fold-change, Superoxide dismutase 2, mitochondria! transcript variant 2 (SOD2) (VSMCs [2]): −1.362 | Fold-change, Thioredoxin reductase 1, transcript variant 4 (TXNRD1) (VSMCs [2]): 1.255 | Fold-change, Ubiquitin-like modifier activating enzyme 3, transcript variant 2 (UBA3) (VSMCs [2]): 1.293 | Fold-change, Zinc finger protein 682, transcript variant 1 (ZNF682) (VSMCs [2]): −1.254 | Fold-change, cDNA FLJ20769 fis, clone COL06674 (PREDICTED: Receptor tyrosine kinase-like orphan receptor 1) (VSMCs [2]): 1.271 | Fold-change, Armadillo repeat containing, X-linked 3, transcript variant 2 (ARMCX3) (VSMCs [2]; table entry 5): 1.298 | Fold-change, Armadillo repeat containing, X-linked 3, transcript variant 2 (ARMCX3) (VSMCs [2]; table entry 10): 1.284
